Laboratory results reported in patent US20240307415A1, “STEROID COMPOUND, AND PHARMACEUTICAL COMPOSITION THEREOF AND USE THEREOF” (JIANGSU SIMCERE PHARMACEUTICAL CO., LTD., priority 2021, published 2024).
Where two headings read alike, the source gives them in different places.

Key:
[1] = tested on: K562-GRE reporter gene; test: K562-GRE reporter gene activity; format: cell-based; conditions: read-out: K562-GRE Reporter EC50
Method: To generate the parental K562-GRE cell line, K562 cells were seeded at 5×10^5 cells/well onto a 6-well plate (brand: Costar, Cat. No: 3516) containing 2 mL of complete medium (RPM1640, 10% FBS, penicillin-streptomycin) and cultured at 37° C. with 5% CO2 for 24 h. The next day, 3 μg of pNL2.2[NLucP/MMTV/Hygro-NANO] (Promega) and 3 μL of PLUS reagent (brand: Invitrogen, Cat. No: 11514-015) were diluted in 150 μL of Opti-MEM (brand: Gibco, Cat. No: 11058021) and incubated at room temperature for 5 min. The pNL2.2[NLucP/MMTV/Hygro-NANO] vector contains MMTV LTR (mouse mammary tumor virus long terminal repeat), which drives transcription of the luciferase reporter gene NanoLuc in response to activation of several nuclear receptors (e.g. glucocorticoid receptor and androgen receptor). After incubation, the diluted DNA solution was mixed with Lipofectamine LTX solution (brand: Invitrogen, Cat. No: 15338-100) (6 μL of Lipofectamine LTX+144 μL of Opti-MEM) in a 1:1 ratio, pre-incubated, and incubated at room temperature for 15 min to form a DNA-Lipofectamine LTX complex. After incubation, 300 μL of the DNA-Lipofectamine complex was added directly to the cell wells. The K562 cells were transfected at 37° C. with 5% CO2 for 24 h. After transfection, the cells were washed with 3 mL of PBS and selectively grown for two weeks with complete growth medium containing 125 μg/mL hygromycin B (brand: Invitrogen, Cat. No: 10687010). “K562-GRE (pNL2.2[NLucP/MMTV/Hygro-NANO])” cells were generated.
After mixing, the cells were cultured in an incubator at 37° C. for 24 h. After 24 h of incubation, an equal volume of 100 μL of Nano-Glo luciferase assay system (brand: Promega, Cat. No: N1120) was added to the cells, the mixture was reacted in a shaker at […] for 10 min, and the chemiluminescence values were detected using the PHERAstar instrument. The antibody binding curves were plotted using the logarithmic value of the antibody concentration as the abscissa and the corresponding chemiluminescence reading as the ordinate, and the EC50 value was calculated by four-parameter fitting (GraphPad Prism9).

[2] = target: Glucocorticoid Receptor GR (Homo sapiens (Human), UniProt P04150); test: Binding activity to glucocorticoid receptor GR (Polarscreen fluorescence polarization kit); conditions: GR full length, 2 h
Method: The binding activity of the compound to GR was determined using the Polarscreen Glucocorticoid Receptor Assay Kit, Red (brand: Thermo, Cat. No: A15898). […] The highest concentration was 100 μM, 8 concentrations in total. […] With the log value of the final concentration of the compound as the X axis and the mP value as the Y axis, data was input into the processing software Graphpad Prism 9, and the EC50 value was calculated by four-parameter fitting

[3] = tested on: CHS mouse model; test: Efficacy test in CHS mouse model (FITC sensitization, right ear thickness); format: in vivo, C57BL/6N mice; conditions: 3 μg/mouse
Method: Construction of CHS mouse model: 6- to 8-week-old female C57BL/6N mice (Beijing Vital River Laboratory Animal Technology Co., Ltd.) were selected, and all mice were shaved off abdominal hair using a small animal hair clipper. 400 μL of the sensitizer was pipetted with a micropipette and applied evenly to the abdomen of the mice for epidermal sensitization. After application, the mice were held for 3-5 s and the solvent was allowed to evaporate from the skin as clean as possible. The specific preparation method for the sensitizer was: 0.5 g of FITC (fluorescein isothiocyanate; sigma-Aldrich) powder was weighed and fully dissolved in a solvent of 50 mL of acetone (SinoPharm reagent) and 50 mL of DBP (dibutyl phthalate; sigma-Aldrich) in equal proportion to give the sensitizer with the FITC content of 0.5%. On the 6th day after sensitization, the thickness of the right ear of the mice was measured with a dial thickness gauge as a baseline value, then a freshly prepared sensitizer was pipetted with a micropipette and applied evenly inside and outside of the right ear of the mice respectively for epidermal stimulation, and 10 μL of the sensitizer was applied on each side. 24 h after stimulation, the thickness of the right ear of the mice was measured again with a dial thickness gauge to obtain the thickness change of the right ear of the mice, A thickness of right ear=(thickness of right ear 24 h after stimulation)−(baseline value of thickness of right ear).
Therapeutic regimen for CHS model mouse: mice were divided into a blank group, a negative control group, a positive control group, and an experimental group. […] The drug was administered by one-time intraperitoneal injection 1 h before the right ear epidermal stimulation.

[4] = K562-GRE cells, 24 h incubation, NanoLuc luciferase

Glucocorticoid Receptor GR, sequence (P04150 whole entry): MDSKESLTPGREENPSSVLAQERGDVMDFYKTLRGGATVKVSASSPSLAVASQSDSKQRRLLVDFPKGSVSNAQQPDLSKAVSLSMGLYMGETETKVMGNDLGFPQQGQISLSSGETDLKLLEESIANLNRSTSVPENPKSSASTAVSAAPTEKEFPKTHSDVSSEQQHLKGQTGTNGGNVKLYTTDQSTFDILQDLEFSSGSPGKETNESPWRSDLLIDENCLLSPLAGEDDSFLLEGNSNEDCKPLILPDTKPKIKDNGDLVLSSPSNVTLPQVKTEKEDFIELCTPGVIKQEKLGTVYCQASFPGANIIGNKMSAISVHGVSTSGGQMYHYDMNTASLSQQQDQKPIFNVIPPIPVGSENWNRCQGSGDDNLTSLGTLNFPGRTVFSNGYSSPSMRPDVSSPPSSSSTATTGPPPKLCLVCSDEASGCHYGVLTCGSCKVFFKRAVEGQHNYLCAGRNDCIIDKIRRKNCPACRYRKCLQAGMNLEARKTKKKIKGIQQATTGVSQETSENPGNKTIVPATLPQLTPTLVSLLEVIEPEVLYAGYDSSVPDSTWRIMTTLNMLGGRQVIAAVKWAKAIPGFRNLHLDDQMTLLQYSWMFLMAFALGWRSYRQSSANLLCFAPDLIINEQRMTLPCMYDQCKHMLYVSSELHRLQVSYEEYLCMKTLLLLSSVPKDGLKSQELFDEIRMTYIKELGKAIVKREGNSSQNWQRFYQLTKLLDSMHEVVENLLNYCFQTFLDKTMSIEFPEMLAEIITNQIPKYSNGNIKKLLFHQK

## C[C@]12C=CC(=O)C=C1[C@@H](F)C[C@H]1[C@@H]3C[C@H]4O[C@@H](c5ccc(Cc6ccc7c(c6)OCCN7)cc5)O[C@@]4(C(=O)CO)[C@@]3(C)C[C@H](O)[C@@]12F [Compound 006, (2S,6aS,6bR,7S,8aS,8bS,10R,11aR,12aS,12bS)-10-(4-((3,4-dihydro-2H-benzo[b][1,4]oxazin-7-yl)methyl)phenyl)-2,6b-difluoro-7-hydroxy-8b-(2-hydroxyacetyl)-6a,8a-dimethyl-6a,6b,7,8,8a,8b,11a,12,12a,12b-decahydro-1H-naphtho[2′,1′:4,5]indeno[1,2-d][1,3]dioxolan-4(2H)-one]
[1]; 24 h
  EC50: 1.7 nM

## C[C@]12C=CC(=O)C=C1CC[C@@H]1[C@@H]2[C@@H](O)C[C@@]2(C)[C@H]1C[C@H]1O[C@@H](c3ccc(Cc4ccc5cc[nH]c5c4)cc3)O[C@]12C(=O)CO [Compound 003, (6aR,6bS,7S,8aS,8bS,10R,11aR,12aS,12bS)-10-(4-((1H-indol-6-yl)methyl)phenyl)-7-hydroxy-8b-(2-hydroxyacetyl)-6a,8a-dimethyl-6a,6b,7,8,8a,8b,11a,12,12a,12b-decahydro-1H-naphtho[2′,1′:4,5]indeno[1,2-d][1,3]dioxolan-4(2H)-one]
[1]; [4]
  EC50: 3.8 nM

## C[C@]12C=CC(=O)C=C1[C@@H](F)C[C@H]1[C@@H]3C[C@H]4O[C@@H](c5ccc(Cc6ccc(N)c7c6CCO7)cc5)O[C@@]4(C(=O)CO)[C@@]3(C)C[C@H](O)[C@@]12F [Compound 010, (2S,6aS,6bR,7S,8aS,8bS,10R,11aR,12aS,12bS)-10-(4-((7-amino-2,3-dihydrobenzofuran-4-yl)methyl)phenyl)-2,6b-difluoro-7-hydroxy-8b-(2-hydroxyacetyl)-6a,8a-dimethyl-6a,6b,7,8,8a,8b,11a,12,12a,12b-decahydro-1H-naphtho[2′,1′:4,5]indeno[1,2-d][1,3]dioxolan-4(2H)-one]
[1]; 24 h
  EC50: 1.07 nM

## C[C@]12C=CC(=O)C=C1CC[C@@H]1[C@@H]2[C@@H](O)C[C@@]2(C)[C@H]1C[C@H]1O[C@@H](c3ccc(Cc4ccc5c(c4)OCCN5)cc3)O[C@]12C(=O)CO [Compound 005, (6aR,6bS,7S,8aS,8bS,10R,11aR,12aS,12bS)-10-(4-((3,4-dihydro-2H-benzo[b][1,4]oxazin-7-yl)methyl)phenyl)-7-hydroxy-8b-(2-hydroxyacetyl)-6a,8a-dimethyl-1,2,6a,6b,7,8,8a,8b,11a,12,12a,12b-decahydro-1H-naphtho[2′,1′:4,5]indeno[1,2-d][1,3]dioxolan-4(2H)-one]
[1]; [4]
  EC50: 5.6 nM

## C[C@]12C=CC(=O)C=C1CC[C@@H]1[C@@H]2[C@@H](O)C[C@@]2(C)[C@H]1C[C@H]1O[C@@H](c3ccc(Cc4ccc5c(c4)NCC5)cc3)O[C@]12C(=O)CO [Compound 004, (6aR,6bS,7S,8aS,8bS,10R,11aR,12aS,12bS)-7-hydroxy-8b-(2-hydroxyacetyl)-10-(4-(indolin-6-ylmethyl)phenyl)-6a,8a-dimethyl-6a,6b,7,8,8a,8b,11a,12,12a,12b-decahydro-1H-naphtho[2′,1′:4,5]indeno[1,2-d][1,3]dioxolan-4(2H)-one]
[1]; 24 h
  EC50: 7.5 nM
[2]
  EC50: 42.5 nM

## C[C@]12C=CC(=O)C=C1CC[C@@H]1[C@@H]2[C@@H](O)C[C@@]2(C)[C@H]1C[C@H]1O[C@@H](c3ccc(Cc4ccc(N)c5ncoc45)cc3)O[C@]12C(=O)CO [Compound 007, (6aR,6bS,7S,8aS,8bS,10R,11aR,12aS,12bS)-10-(4-((4-aminobenzo[d]oxazol-7-yl)methyl)phenyl)-7-hydroxy-8b-(2-hydroxyacetyl)-6a,8a-dimethyl-6a,6b,7,8,8a,8b,11a,12,12a,12b-decahydro-1H-naphtho[2′,1′:4,5]indeno[1,2d][1,3]dioxolan-4(2H)-one]
[1]; 24 h
  EC50: 2.1 nM
[2]
  EC50: 17.1 nM

## C[C@]12C=CC(=O)C=C1CC[C@@H]1[C@@H]2[C@@H](O)C[C@@]2(C)[C@H]1C[C@H]1O[C@@H](c3ccc(Cc4ccc(N)c5c4CCO5)cc3)O[C@]12C(=O)CO [Compound 001, (6aR,6bS,7S,8aS,8bS,10R,11aR,12aS,12bS)-10-(4-((7-amino-2,3-dihydrobenzofuran-4-yl)methyl)phenyl)-7-hydroxy-8b-(2-hydroxyacetyl)-6a,8a-dimethyl-6a,6b,7,8,8a,8b,11a,12,12a,12b-decahydro-1H-naphtho[2′,1′:4,5]indeno[1,2-d][1,3]dioxolan-4(2H)-one]
[3]; one-time intraperitoneal injection 1 h before right ear stimulation, measured 24 h after stimulation
  thickness of the right ear in CHS mice compared to the negative control group: significant decrease
[3]; one-time intraperitoneal injection, CHS mice, right ear thickness
  efficacy compared with positive reference compound a at the same dose: superior in efficacy to the positive reference compound a
[1]; 24 h
  EC50: 3.5 nM
[2]
  EC50: 13 nM

## CC12C=CC(=O)C=C1CCC1C2C(O)CC2(C)C1CC1OC(c3ccc(Cc4cc(N)cc5c4CCO5)cc3)OC12C(=O)CO [Compound 012, (6aR,6bS,7S,8aS,8bS,10R,11aR,12aS,12bS)-10-(4-((6-amino-2,3-dihydrobenzofuran-4-yl)methyl)phenyl)-7-hydroxy-8b-(2-hydroxyacetyl)-6a,8a-dimethyl-6a,6b,7,8,8a,8b,11a,12,12a,12b-decahydro-1H-naphtho[2′,1′:4,5]indeno[1,2-d][1,3]dioxolan-4(2H)-one]
[1]; [4]
  EC50: 9.58 nM

## C[C@]12C=CC(=O)C=C1CC[C@@H]1[C@@H]2[C@@H](O)C[C@@]2(C)[C@H]1C[C@H]1O[C@@H](c3ccc(Cc4ccc(N)c5c4OCO5)cc3)O[C@]12C(=O)CO [Compound 008, (6aR,6bS,7S,8aS,8bS,10R,11 aR,12aS,12bS)-10-(4-((7-aminobenzo[d][1,3]dioxolan-4-yl)methyl)phenyl)-7-hydroxy-8b-(2-hydroxyacetyl)-6a,8a-dimethyl-6a,6b,7,8,8a,8b,11a,12,12a,12b-decahydro-1H-naphtho[2′,1′:4,5]indeno[1,2-d][1,3]dioxolan-4(2H)-one]
[1]; [4]
  EC50: 7.81 nM

## C[C@]12C=CC(=O)C=C1CC[C@@H]1[C@@H]2[C@@H](O)C[C@@]2(C)[C@H]1C[C@H]1O[C@@H](c3ccc(Cc4ccc5nc[nH]c5c4)cc3)O[C@]12C(=O)CO [Compound 002, (6aR,6bS,7S,8aS,8bS,10R,11aR,12aS,12bS)-10-(4-((1H-benzo[d]imidazol-6-yl)methyl)phenyl)-7-hydroxy-8b-(2-hydroxyacetyl)-6a,8a-dimethyl-6a,6b,7,8,8a,8b,11a,12,12a,12b-decahydro-1H-naphtho[2′,1′:4,5]indeno[1,2-d][1,3]dioxolan-4(2H)-one]
[1]; [4]
  EC50: 9 nM

## C[C@]12C=CC(=O)C=C1CC[C@@H]1[C@@H]2[C@@H](O)C[C@@]2(C)[C@H]1C[C@H]1O[C@@H](c3ccc(Cc4ccc(N)c5c4CCC5)cc3)O[C@]12C(=O)CO [Compound 011, (6aR,6bS,7S,8aS,8bS,10R,11aR,12aS,12bS)-10-(4-((7-amino-2,3-dihydro-1H-inden-4-yl)methyl)phenyl)-7-hydroxy-8b-(2-hydroxyacetyl)-6a,8a-dimethyl-6a,6b,7,8,8a,8b,11a,12,12a,12b-decahydro-1H-naphtho[2′,1′:4,5]indeno[1,2-d][1,3]dioxolan-4(2H)-one]
[1]; [4]
  EC50: 4.25 nM
